Measured values from patent publication US10166267B1, “Multi-component formulations for the treatment of cognitive decline including Alzheimer's disease” (priority 2010, dated 2019).

Assays:
primary chicken neurons = assay: MTT cell viability assay on primary chicken neurons, components applied for forty-eight hours; assay type: cell-based; conditions: for effect on cell viability: 48 h
Procedure: Further tests were conducted to assess the neuroprotective effects of a number of the components previously disclosed herein at various concentrations on primary chicken neurons, individually and in select combinations. The study components were applied to test specimens obtained on embryonic day 8 in vitro (“DIV8”) for a period of forty-eight hours, after which, the test specimens were evaluated in accordance with MTT assay to determine cell viability.
One day old fertilized eggs were stored under appropriate conditions until the start of breeding. On embryonic day zero, eggs were transferred to a breeding incubator and maintained under turning at 37.8° C. and 55% humidity until embryonic day eight.
All cell culture experiments were carried out under sterile conditions and all procedures were performed in a cell culture unit with special cell culture equipment. Glassware, forceps ad/or scissors were sterilized prior to experiments. Stock chemical solutions were obtained sterile, and final solution and culture medium were prepared fresh in a laminar airflow cabinet.
Neurons were prepared as follows. DIV8 embryos were transferred to plastic dish and decapitated. Bother hemispheres were removed, collected, and cleaned from any loose tissue. Hemispheres were then mechanically disassociated and 4.8×10^4 cells per well in a 96-well plate, and each well was seeded with 160 μL.
The cell culture medium for chicken telencephalon neurons consists of DMEM with 4.5 grams glucose, 5% Nu Serum, 0.01% gentamycin, and 2 mM L-glutamine. Cultures are maintained at 37° C., 95% humidity and 5% CO2.
The study component(s) and vehicle controls (“VC”) were applied to chicken neurons at DIVE for forty-eight hours. The viability of the chicken neurons at DIV10 were determined according to an MTT cell viability assay.
MTT Cell Viability Assay: The viability of the chicken neurons were determined by MTT assay using a plate reader at 570 nanometers as described in SOP MET004. The assay measures the mitochondrial dehydrogenase activity which reduces yellow MTT to dark blue formazan crystals. As the reaction is catalyzed only in living cells, the assay is used to determine cell viability. MTT is added to each well at a concentration of 0.5 milligrams per milliliter. After two hours, the MTT containing medium is aspirated. Cells are lysed in 3% SDS and the formazan crystals are dissolved in isopropanol/hydrochloric acid. Optical density is measured with a plate-reader at a wavelength of 570 nanometers.
Cell survival rate is expressed as optical density, and values are calculated as a percentage of the vehicle control values, the vehicle control being 100%.

[1] = cited from earlier work

COc1cc(/C=C/C(=O)CC(=O)/C=C/c2ccc(O)c(OC)c2)ccc1O [Curcumin, curcumin]
protective effects, curcumin alone vs in combination with MSM/FDP (primary chicken neurons; Part 3, curcumin applied alone): protective effects only in combinations with MSM/FDP but not when applied alone
effect on cell viability (primary chicken neurons; curcumin 50, 20, 10 and 5 μM, vs vehicle): negative effects on cell viability
effect on cell viability (primary chicken neurons; curcumin lowest concentration 0.01 μM, vs vehicle): positive influence on cell viability

C[S+](C)[O-] [DMSO, Dimethyl sulfoxide]
effect on cell viability (primary chicken neurons; DMSO 5%, vs vehicle treated cells): toxic effects
effect on cell viability (primary chicken neurons; DMSO, all other concentrations tested, vs vehicle treated cells): minor negative effect on cell viability
DMSO converted to MSM in the body [1]: approximately 15%

CS(C)(=O)=O [MSM, Methylsulfonylmethane]
concentration of MSM relative to DMSO achieving the same effects on cell viability (primary chicken neurons; MSM 0.1 μM vs DMSO 12.8 μM in combinations): 128 times less concentrated
effects on cell viability in the combinations, MSM vs DMSO (primary chicken neurons; MSM 0.0001 mM = 0.1 μM vs DMSO 12.8 μM = 0.0001%): same effects on cell viability
effect on cell viability (primary chicken neurons; MSM highest concentration 50 mM): minor negative effect
tolerance by cells when applied alone (primary chicken neurons; MSM vs DMSO, each applied alone): tolerated MSM better than DMSO
effect on cell viability (primary chicken neurons; MSM, all other applied concentrations, increase seen at 1 and 0.01 mM): no or even a slight increase in cell viability

O=C(COP(=O)(O)O)[C@@H](O)[C@H](O)[C@H](O)COP(=O)(O)O [FDP, Fructose 1,6-diphosphate]
effect on cell viability (primary chicken neurons; FDP highest concentrations 50, 10 and 5 mM): toxic effects
effect on cell viability (primary chicken neurons; FDP, other applied concentrations): no significant effects

Oc1ccc(C=Cc2cc(O)cc(O)c2)cc1 [Resveratrol, resveratrol]
effect on cell viability (primary chicken neurons; resveratrol 20, 10 and 5 μM, vs vehicle): positive effects on cell viability
effect on cell viability (primary chicken neurons; resveratrol 50 and 100 μM, vs vehicle): toxic to cells
cell viability compared to resveratrol (20 μM) plus DMSO/FDP (primary chicken neurons; resveratrol alone 20 μM): even better effects on cell viability
